Reference: US11767341B2, “Lincosamide antibiotics and uses thereof” (President and Fellows of Harvard College, priority 2017, dated 2023)
Values after ≈ are worked out from the molar mass of the structure shown. Read-outs that look alike come from different tables or passages of the source.

What was measured:
Assay in all cases: MIC determination
Format in all cases: cell-based
[1] = test system: E. coli MMX TolC parent strain; conditions: Escherichia coli
[2] = test system: E. coli MMX 0121 ΔTolC; conditions: Escherichia coli
[3] = test system: E. faecalis ATCC 29212; conditions: Enterococcus faecalis
[4] = test system: E. coli ATCC 25922; conditions: Escherichia coli
[5] = test system: H. influenzae ATCC 49247; conditions: Haemophilus influenzae, ATCC49247
[6] = test system: B. fragilis ATCC 25285; conditions: Bacteroides fragilis, ATCC25285
[7] = test system: S. aureus MMX 3035 cErmA; conditions: Staphylococcus aureus, MMX3035CERMA
[8] = test system: E. coli MP-74 LptD mutant; conditions: Escherichia coli
[9] = test system: E. coli MP-9 ΔTolC; conditions: Escherichia coli
[10] = test system: E. faecalis MMX 847 Macrolide-Resistant; conditions: Enterococcus faecalis
[11] = test system: S. pneumoniae ATCC 49619; conditions: Streptococcus pneumoniae, ATCC49619; S. pneumoniae ATCC 49619; read-out: MIC
[12] = test system: C. difficile BAA 1805; conditions: Clostridioides difficile, BAA1805; C. difficile BAA 1805; read-out: MIC
[13] = test system: S. aureus ATCC 29213; conditions: Staphylococcus aureus
[14] = test system: P. aeruginosa ATCC 27853; conditions: Pseudomonas aeruginosa, ATCC27853
[15] = test system: S. aureus MP-549 msr(a) USA 300; conditions: Staphylococcus aureus, USA300, S. aureus MP-549 msr(a) USA 300
[16] = test system: P. aeruginosa MMX Mex parent strain; conditions: Pseudomonas aeruginosa
[17] = test system: S. aureus MP-513 clinical cErm; conditions: Staphylococcus aureus
[18] = test system: S. aureus BAA 977 iErmA; conditions: Staphylococcus aureus, BAA977
[19] = test system: S. pyogenes MMX 946 Macrolide-Resistant; conditions: Streptococcus pyogenes, read-out: MIC
[20] = test system: S. pneumoniae MMX 3028 cErmB; conditions: Streptococcus pneumoniae, MMX3028CERMB
[21] = test system: S. pneumoniae MMX 3031 cMefA; conditions: Streptococcus pneumoniae, MMX3031CMEFA
[22] = test system: S. pyogenes ATCC 19615; conditions: Streptococcus pyogenes, ATCC19615
[23] = test system: S. aureus Micromyx USA 300; conditions: Staphylococcus aureus, USA300; S. aureus Micromyx USA 300; read-out: MIC
[24] = test system: P. aeruginosa MMX 3476 Δmex; conditions: Pseudomonas aeruginosa
[25] = test system: S. pyogenes UNT-014, MP-625 MacRes; conditions: Streptococcus pyogenes
[26] = test system: S. aureus UNT-146, MP-620, TP 506 (ermA); conditions: Staphylococcus aureus
[27] = test system: E. faecalis UNT-047 VRE; conditions: Enterococcus faecalis, VRE
[28] = test system: S. pneumoniae UNT-039, MP-627, TP1517 (mefA); conditions: Streptococcus pneumoniae
[29] = test system: S. aureus UNT-120, MP-619, NRS22 (USA 600, GISA); conditions: Staphylococcus aureus
[30] = test system: K. pneumoniae ATCC 10031; conditions: Klebsiella pneumoniae, ATCC10031
[31] = test system: S. pneumoniae UNT-038, MP-626, TP 160 (mefA); conditions: Streptococcus pneumoniae
[32] = test system: S. aureus UNT96, NRS710, MP-618 (USA 100, Erythro >8); conditions: Staphylococcus aureus
[33] = ATCC29213, S. aureus ATCC 29213, read-out: MIC
[34] = S. pyogenes ATCC 19615, read-out: MIC

Row | Compound | MIC ([3]; ATCC29212) | MIC ([4]; ATCC25922) | MIC [9] | MIC [11] | MIC [13, 33] | MIC [14] | MIC [15] | MIC [17] | MIC [18] | MIC [22, 34] | MIC [28] | MIC [30] | other results
1 | CSC1O[C@H]([C@H](NC(=O)[C@H]2NC[C@@H]3CC=CCO[C@H]32)[C@H](C)Sc2ccc(-c3cncnc3)cc2)C(O)[C@@H](O)[C@H]1O (stereo partly drawn) [FSA-27049] | 64 µg/mL (≈ 109 µM) | > 64 µg/mL | 64 µg/mL (≈ 109 µM) | ≤ 0.06 µg/mL | 1 µg/mL (≈ 1.7 µM) | > 64 µg/mL | 0.25 µg/mL (≈ 0.425 µM) | > 64 µg/mL | 2 µg/mL (≈ 3.4 µM) | ≤ 0.06 µg/mL | – | – | MIC [1]: > 64 µg/mL; MIC [2]: 8 µg/mL (≈ 13.6 µM); MIC [5]: 32 µg/mL (≈ 54.4 µM); MIC [6]: > 64 µg/mL; MIC [7]: > 64 µg/mL; MIC [8]: 32 µg/mL (≈ 54.4 µM); MIC [10]: > 64 µg/mL; MIC [12]: 1 µg/mL (≈ 1.7 µM); MIC [16]: > 64 µg/mL; MIC ([19]; S. pyogenes MMX 946 Macrolide-Resistant (MacRes)): 2 µg/mL (≈ 3.4 µM); MIC [20]: 32 µg/mL (≈ 54.4 µM); MIC [21]: ≤ 0.06 µg/mL; MIC [23]: 1 µg/mL (≈ 1.7 µM); MIC [24]: > 64 µg/mL
2 | CSC1O[C@H]([C@H](NC(=O)[C@H]2NC[C@@H]3C[C@@H](O)[C@@H](O)CO[C@H]32)[C@H](C)Cl)C(O)[C@@H](O)[C@H]1O (stereo partly drawn) [FSA-501076] | > 64 µg/mL | > 64 µg/mL | > 64 µg/mL | 64 µg/mL (≈ 136 µM) | – | > 64 µg/mL | > 64 µg/mL | > 64 µg/mL | > 64 µg/mL | – | 32 µg/mL (≈ 67.9 µM) | > 64 µg/mL | MIC [25]: > 64 µg/mL; MIC [26]: > 64 µg/mL; MIC [27]: > 64 µg/mL; MIC ([13]; ATCC29213): > 64 µg/mL; MIC [29]: > 64 µg/mL; MIC [22]: > 64 µg/mL; MIC [31]: 64 µg/mL (≈ 136 µM); MIC [32]: > 64 µg/mL
3 | CSC1O[C@H]([C@H](NC(=O)[C@H]2NC[C@@H]3C[C@H]4OC(C)(C)O[C@H]4CO[C@H]32)[C@H](C)Cl)C(O)[C@@H](O)[C@H]1O (stereo partly drawn) [FSA-501099] | > 64 µg/mL | > 64 µg/mL | > 64 µg/mL | 8 µg/mL (≈ 15.7 µM) | – | > 64 µg/mL | > 64 µg/mL | > 64 µg/mL | > 64 µg/mL | 16 µg/mL (≈ 31.3 µM) | 2 µg/mL (≈ 3.91 µM) | > 64 µg/mL | MIC ([25]; S. pyogenes UNT-014, MP-625 MacRes, read-out: MIC): 29 µg/mL (≈ 56.7 µM); MIC [26]: > 64 µg/mL; MIC [27]: > 64 µg/mL; MIC ([13]; ATCC29213): > 64 µg/mL; MIC [29]: > 64 µg/mL; MIC [31]: 16 µg/mL (≈ 31.3 µM); MIC [32]: > 64 µg/mL
4 | C=CCOC(=O)N1CCO[C@@H]2[C@H](CN[C@@H]2C(=O)N[C@H]([C@H](C)Cl)[C@H]2OC(SC)[C@H](O)[C@H](O)C2O)C1 (stereo partly drawn) [FSA-503073] | – | > 64 µg/mL | > 64 µg/mL | – | 64 µg/mL (≈ 122 µM) | > 64 µg/mL | 32 µg/mL (≈ 61.1 µM) | > 64 µg/mL | 64 µg/mL (≈ 122 µM) | – | – | > 64 µg/mL | –
5 | CSC1O[C@H]([C@H](NC(=O)[C@H]2NC[C@@H]3CN(Cc4ccc(N)nc4)CCO[C@H]32)[C@H](C)Cl)C(O)[C@@H](O)[C@H]1O (stereo partly drawn) [FSA-504050] | – | > 64 µg/mL | > 64 µg/mL | – | 32 µg/mL (≈ 58.6 µM) | > 64 µg/mL | 32 µg/mL (≈ 58.6 µM) | > 64 µg/mL | 64 µg/mL (≈ 117 µM) | – | – | > 64 µg/mL | –
6 | CSC1O[C@H]([C@H](NC(=O)[C@H]2NC[C@@H]3CN(Cc4ccnc(N)c4)CCO[C@H]32)[C@H](C)Cl)C(O)C(O)[C@H]1O (stereo partly drawn) [FSA-504849] | – | > 64 µg/mL | > 64 µg/mL | – | 16 µg/mL (≈ 29.3 µM) | > 64 µg/mL | 8 µg/mL (≈ 14.6 µM) | > 64 µg/mL | 32 µg/mL (≈ 58.6 µM) | – | – | > 64 µg/mL | –
7 | CSC1O[C@H]([C@H](NC(=O)[C@H]2NC[C@@H]3C[C@@H](c4ccccc4F)CCO[C@H]32)[C@H](C)Cl)C(O)[C@@H](O)[C@H]1O (stereo partly drawn) [FSA-511100] | – | – | 32 µg/mL (≈ 60 µM) | 0.125 µg/mL (≈ 0.234 µM) | 0.25 µg/mL (≈ 0.469 µM) | – | 0.25 µg/mL (≈ 0.469 µM) | – | 4 µg/mL (≈ 7.5 µM) | 0.25 µg/mL (≈ 0.469 µM) | 1 µg/mL (≈ 1.88 µM) | – | MIC ([3]; ATCC29212, read-out: MIC): > 256 µg/mL; MIC ([4]; ATCC25922, E. coli ATCC 25922, read-out: MIC): > 64 µg/mL; MIC ([5]; H. influenzae ATCC 49247, read-out: MIC): 64 µg/mL (≈ 120 µM); MIC [8]: 16 µg/mL (≈ 30 µM); MIC ([17]; S. aureus MP-513 clinical cErm, read-out: MIC): > 256 µg/mL; MIC ([19]; S. pyogenes MMX 946 MacRes): > 256 µg/mL; MIC ([30]; K. pneumoniae ATCC 10031, read-out: MIC): > 64 µg/mL; MIC ([20]; S. pneumoniae MMX 3028 cErmB, read-out: MIC): > 256 µg/mL
